Data reported in ChEMBL document CHEMBL4602703, “Lead Optimization of a Pyrrole-Based Dihydroorotate Dehydrogenase Inhibitor Series for the Treatment of Malaria” (J Med Chem, 2020).

What was measured:
[1] = Inhibition of N-terminal His6-tagged Plasmodium falciparum DHODH expressed in Escherichia coli BL21(DE3) cells using L-DHO as substrate by DCIP dye based assay
[2] = target: Dihydroorotate dehydrogenase (quinone), mitochondrial (Homo sapiens, UniProt Q02127)
Plasmodium falciparum = assay: microbe, parasite or virus in culture; conditions: 3D7, 72 h
Albumin = Albumin (Homo sapiens, UniProt P02768); assay: Binding affinity to albumin (unknown origin) by chromatographic method; assay type: ADME; conditions: albumin, read-out: PB (converted)
Chain of Albumin (P02768 whole entry): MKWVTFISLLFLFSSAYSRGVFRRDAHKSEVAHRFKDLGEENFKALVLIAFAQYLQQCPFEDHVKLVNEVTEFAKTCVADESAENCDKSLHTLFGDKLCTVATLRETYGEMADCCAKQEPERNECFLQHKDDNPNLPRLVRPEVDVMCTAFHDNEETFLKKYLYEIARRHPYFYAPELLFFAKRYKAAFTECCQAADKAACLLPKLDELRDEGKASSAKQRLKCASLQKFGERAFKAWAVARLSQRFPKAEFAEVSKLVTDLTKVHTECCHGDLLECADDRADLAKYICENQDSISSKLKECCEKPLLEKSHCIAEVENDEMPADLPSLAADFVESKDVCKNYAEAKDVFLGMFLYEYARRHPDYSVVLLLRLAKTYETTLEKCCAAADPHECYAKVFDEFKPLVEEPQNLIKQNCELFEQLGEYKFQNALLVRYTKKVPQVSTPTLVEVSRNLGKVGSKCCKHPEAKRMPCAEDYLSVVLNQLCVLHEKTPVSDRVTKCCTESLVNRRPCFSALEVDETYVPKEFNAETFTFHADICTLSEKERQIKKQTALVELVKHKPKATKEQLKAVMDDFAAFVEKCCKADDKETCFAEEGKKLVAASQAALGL

physchem = conditions: octanol/water, pH 7.4
[3] = Intrinsic clearance in mouse liver microsomes assessed as per mg protein; assay type: ADME, Microsome; conditions: microsomes
[4] = Intrinsic clearance in human liver microsomes assessed as per mg protein; assay type: ADME, Microsome

Chain of Dihydroorotate dehydrogenase (quinone), mitochondrial (Q02127 whole entry): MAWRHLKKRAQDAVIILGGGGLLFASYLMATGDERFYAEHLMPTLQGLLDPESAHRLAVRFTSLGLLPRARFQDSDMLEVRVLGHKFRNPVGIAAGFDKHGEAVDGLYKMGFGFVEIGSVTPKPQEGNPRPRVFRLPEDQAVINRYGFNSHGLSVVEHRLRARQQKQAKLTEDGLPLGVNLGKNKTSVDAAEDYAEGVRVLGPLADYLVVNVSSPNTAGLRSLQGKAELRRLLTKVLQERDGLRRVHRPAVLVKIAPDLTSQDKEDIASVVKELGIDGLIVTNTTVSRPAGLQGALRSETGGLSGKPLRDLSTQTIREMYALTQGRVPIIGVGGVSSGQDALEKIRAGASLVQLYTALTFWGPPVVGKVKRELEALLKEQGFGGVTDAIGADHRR

Compound	IC50 [1] [nM]	IC50 [2] [nM]	EC50 (Plasmodium falciparum) [nM]	fraction unbound (Albumin)	logD (physchem)	microsomal CLint [3] [µL/min/mg]	microsomal CLint [4] [µL/min/mg]
CCCNC(=O)c1[nH]c(C)c(Cc2ccc(C(F)(F)F)cc2)c1C	300	> 100000	110				
Cc1[nH]c(C(=O)O)c(C)c1Cc1ccc(C(F)(F)F)cc1			> 10000				
Cc1c(Cc2ccc(C(F)(F)F)nc2)c[nH]c1C(=O)NC1CC(F)C1 (stereo not drawn)	320		170				
Cc1[nH]c(C(=O)N2CCC2)c(C)c1Cc1ccc(C(F)(F)F)nc1	140		130	0.228	2.9	53	31
CCOC(=O)c1[nH]cc(Cc2c(F)cc(C(F)(F)F)cc2F)c1C	> 30000		> 10000				
Cc1[nH]c(C(=O)NC2CCC2)c(C)c1Cc1ccc(C(F)(F)F)nc1	42 to 72	> 100000	66				
Cc1[nH]c(C(=O)NC2CCNCC2)cc1Cc1ccc(C(F)(F)F)nc1	> 100000		> 10000				
Cc1[nH]c(C(=O)NC(C)(C)C)cc1Cc1ccc(C(F)(F)F)nc1	5700		3500				
Cc1[nH]c(C(=O)N(C)C)c(C)c1Cc1ccc(C(F)(F)F)nc1	> 30000		> 10000				
Cc1[nH]c(C(=O)NC2CCN(C)CC2)cc1Cc1ccc(C(F)(F)F)nc1	> 100000		> 10000				
Cc1c(Cc2cnc(C(F)(F)F)nc2)c[nH]c1C(=O)NC1CC1		> 100000	390		2.5		< 7
CCOC(=O)c1[nH]c(C)c(Cc2ccc(C(C)C)cc2)c1C	570	> 100000	470				
COCc1c(Cc2ccc(C(F)(F)F)nc2)c[nH]c1C(=O)NC1CC1	450	> 100000	240				
Cc1c(Cc2ccc(C(F)(F)F)nc2)c[nH]c1C(=O)NC(C)C	80	> 100000	13				
Cc1[nH]c(C(=O)NC2CC2)c(C)c1Cc1ccc(C(F)(F)F)cn1	440		340				
Cc1c(C(=O)NC2CC2)[nH]c(C(F)(F)F)c1Cc1ccc(C(F)(F)F)nc1	1600		770				
Cc1c(Cc2ccc(C(F)(F)F)nc2)c[nH]c1C(=O)NC1(C(F)(F)F)CC1	9300		3900				
Cc1c(Cc2ccc(C(F)(F)F)nc2)c[nH]c1C(=O)NC(C)(C)C	110	> 100000	51				
Cc1[nH]c(C(=O)N2CCC2)c(C)c1Cc1ccc(C(F)(F)F)cn1	1800	> 100000	1000				
Cc1[nH]c(C(=O)NC2CC2)c(C)c1C(=O)c1ccc(C(F)(F)F)cn1	> 100000		10000 to 20000	0.496	2.4	24	8
CCOC(=O)c1[nH]cc(Cc2ccc(C(F)(F)F)cc2Cl)c1C	42	> 100000	29				
Cc1c(Cc2ccc(C(F)(F)F)nc2)c[nH]c1C(=O)N1CC(F)C1	120	> 100000	51			145	7
CCOC(=O)c1c(C)c(Cc2ccc(C(F)(F)F)cc2)c(C)n1C	> 100000						
CCOC(=O)c1[nH]cc(Cc2ccc(C(F)(F)F)cc2F)c1C	35	> 100000	28				
CCCCNC(=O)c1[nH]c(C)c(Cc2ccc(C(F)(F)F)cc2)c1C	9900	> 100000	710				
Cc1[nH]c(C(=O)NC2CC2)c(C)c1Cc1ccc(C(F)(F)F)nc1		> 100000	36	0.172	3	33	15
Cc1[nH]c(C(=O)NC2CNC2)cc1Cc1ccc(C(F)(F)F)nc1	> 100000		> 20000				

Compound	IC50 [1] [nM]	IC50 [2] [nM]	EC50 (Plasmodium falciparum) [nM]	fraction unbound (Albumin)	logD (physchem)	microsomal CLint [3] [µL/min/mg]	microsomal CLint [4] [µL/min/mg]
Cc1c(Cc2ccc(C(F)(F)F)nc2)c[nH]c1C(=O)C1CC1	18	> 100000	9.9				
Cc1[nH]c(C(=O)NC2CC2)cc1Cc1cnc(C(F)(F)F)nc1	> 100000		> 10000	0.555	2.5	8	< 7
Cc1c(Cc2ccc(C(F)(F)F)nc2)c[nH]c1C(=O)NC1CC(F)(F)C1	3600		1300				
CCNC(=O)c1[nH]c(C)c(Cc2ccc(C(F)(F)F)cc2)c1C	140	> 100000	51				
Cc1c(Cc2cccnc2)c[nH]c1C(=O)NC1CC1	> 100000		> 10000	0.268		138	19
CCOC(=O)c1[nH]c(C)c(Cc2ccc(C(F)(F)F)cn2)c1C	300	> 100000	100				
CCOC(=O)c1[nH]c(C)c(Cc2ccc(OCC)cc2)c1C		> 100000	230 to 250		4.5	470	188
Cc1c(Cc2c(F)cc(C(F)(F)F)cc2F)c[nH]c1C(=O)NC1CC1	1200		420				
Cc1[nH]c(C(=O)N2CCCCC2)cc1Cc1ccc(C(F)(F)F)nc1	> 100000		> 20000	0.125	3.5	93	173
CCOC(=O)c1[nH]cc(Cc2ccc(C#N)nc2)c1C	630		200				
Cc1c(Cc2ccc(C(F)(F)F)nc2)c[nH]c1C(=O)NS(C)(=O)=O	> 100000		> 100000				
Cc1[nH]c(C(=O)NC(C)C)cc1Cc1ccc(C(F)(F)F)nc1	2800		1900				
CCOC(=O)c1[nH]c(C)c(Cc2cccc(OCC)c2)c1C	830	> 100000	530				
CCN(CC)C(=O)c1[nH]c(C)c(Cc2ccc(C(F)(F)F)nc2)c1C	13000		> 10000				
Cc1[nH]c(C(=O)NC2CCOCC2)cc1Cc1ccc(C(F)(F)F)nc1	> 100000		> 10000				
Cc1c(Cc2ccc(C(F)(F)F)nc2)c[nH]c1C(=O)N1CCCC1	9800		4800				
Cc1[nH]c(C(=O)N2CCCC2)cc1Cc1ccc(C(F)(F)F)nc1	> 100000		> 10000	0.185	3.2	138	226
COc1cc(C(F)(F)F)ccc1Cc1c[nH]c(C(=O)NC2CC2)c1C	110	> 100000	260				
CCOC(=O)c1[nH]cc(Cc2ccc(C(F)(F)F)cc2OC)c1C	1100		810				
Cc1[nH]c(C(=O)NC2CN(C)C2)cc1Cc1ccc(C(F)(F)F)nc1	> 100000		> 20000				
Cc1[nH]c(C(=O)NC2CCC2)c(C)c1Cc1ccc(C(F)(F)F)cn1	410	> 100000	470 to 680				
CCOC(=O)c1[nH]c(C)c(Cc2cc(OC)cc(OC)c2)c1C	2300	> 100000	10000				
CCOC(=O)c1[nH]c(C)c(C(=O)c2ccc(C(F)(F)F)cn2)c1C	21000		6500				
O=C(NC1CC1)c1[nH]cc(Cc2ccc(C(F)(F)F)nc2)c1CO	4300		1200				
CCCC(=O)c1[nH]cc(Cc2ccc(C(F)(F)F)nc2)c1C	98	> 100000	65				
CCOC(=O)c1[nH]cc(Cc2ccc(C(F)(F)F)cc2)c1C	130	> 100000	60				
